Experimental data: patent publication US20120009239A1, “Prebiotic Formulations for use with Probiotics to Increase Probiotic Growth Rate and Activity” (MASTER SUPPLEMENTS, INC., priority 2010, published 2012)

Tests used:
[1] = test system: L. acidophilus NCFM (LA-1); assay: Growth (turbidity) and lactic acid producing activity of L. acidophilus NCFM in MRS broth with polysorbate 80 or substitute; assay type: cell-based, Lactobacillus acidophilus; details: for Lactic Acid % / pH: additive at 0.1% in MRS; for NTU (Turbidity): additive at 0.1% in MRS (polysorbate 80 control 1.0 g per liter)
Experimental: The prebiotics of this invention can be in the same capsule or formulation as the probiotics, or in a separate dosage form. The prebiotics should be in a separate dosage form if they are naturally occurring, as opposed to adsorbed. […] Prebiotic formulations are often probiotic strain dependent. […] At specified time intervals, a 30 ml sample from each flask was aseptically transferred into a HACH […] Turbidimeter sample cell. The turbidity of each sample was read and the results were reported in NTU's. The same 30 ml sample used for the turbidity reading was transferred into a 250 ml glass beaker, and the pH was recorded. The sample was titrated using 0.1N NaOH to an endpoint of pH 6.8, and the quantity of NaOH used was recorded. The % Lactic Acid was calculated using the following formula: % Lactic Acid=((mls of 0.1N NaOH)×(0.1N)×(90 gm/mole)×(1 L/1000 ml))×100 mls of sample % Lactic Acid=(mls of 0.1N NaOH)×(0.9) (Results reported at 12 hours and 23 hours like: 12/23 in Table I below)

[2] = test system: Lactobacillus paracasei Lpc-37 (F-19); assay: Growth and lactic acid producing activity of Lactobacillus paracasei Lpc-37 in MRS broth; assay type: cell-based; details: for Lactic Acid % / pH: additive at 0.1% in MRS; for NTU (Turbidity): additive at 0.1% in MRS (polysorbate 80 control 1.0 g per liter)
Excerpt: (§1) The prebiotics of this invention can be in the same capsule or formulation as the probiotics, or in a separate dosage form. The prebiotics should be in a separate dosage form if they are naturally occurring, as opposed to adsorbed. The prebiotics of this invention may be taken with carbohydrate or fiber to increase their effectiveness. Prebiotic formulations are often probiotic strain dependent. Some Lactobacillus strains, for example, respond best to a form of lecithin derived from sunflowers (Sunflower Lecithin) while others show no preference to lecithin type and respond equally well to soy lecithin. Other strains show a synergistic response when lecithin is used together with oleic acid. […] Each flask was tempered to 37° C. and aseptically inoculated with 0.14 gm of the individual probiotic strains (in Examples 5 to 10 below) to be tested. At specified time intervals, a 30 ml sample from each flask was aseptically transferred into a HACH […] Turbidimeter sample cell. The turbidity of each sample was read and the results were reported in NTU's. The same 30 ml sample used for the turbidity reading was transferred into a 250 ml glass beaker, and the pH was recorded. The sample was titrated using 0.1N NaOH to an endpoint of pH 6.8, and the quantity of NaOH used was recorded. The % Lactic Acid was calculated using the following formula: % Lactic Acid=((mls of 0.1N NaOH)×(0.1N)×(90 gm/mole)×(1 L/1000 ml))×100 mls of sample % Lactic Acid=(mls of 0.1N NaOH)×(0.9) (Results reported at 12 hours and 23 hours like: 12/23 in Table III below)

[3] = test system: Lactobacillus rhamnosus—Lr-32 (LR-44); assay: Growth and lactic acid producing activity of Lactobacillus rhamnosus Lr-32 in MRS broth; assay type: cell-based; details: for Lactic Acid % / pH: additive at 0.1% in MRS; for NTU (Turbidity): additive at 0.1% in MRS (polysorbate 80 control 1.0 g per liter)
Excerpt: as §1, with “IV” for “III”

[4] = test system: Lactobacillus salivarius—Ls-33 (LS-30); assay: Growth and lactic acid producing activity of Lactobacillus salivarius Ls-33 in MRS broth; assay type: cell-based; details: for Lactic Acid % / pH: additive at 0.1% in MRS; for NTU (Turbidity): additive at 0.1% in MRS (polysorbate 80 control 1.0 g per liter)
Excerpt: as §1, with “V” for “III”

[5] = test system: THERALAC® Lot # 32310A, a commercial probiotic product; assay: Growth of the commercial probiotic […] in MRS broth; assay type: cell-based; details: for Lactic Acid % / pH: additive at 0.1% in MRS; for NTU (Turbidity): additive at 0.1% in MRS (polysorbate 80 control 1.0 g per liter), THERALAC inoculated at 0.1%
Experimental: MRS broth was prepared with (for controls) and without (for tests) polysorbate 80 and filled into 1 liter screw cap flasks at 500 ml each and autoclaved at 121° C. for 30 minutes. Various lecithin and/or oleic acid additives, or nothing (negative control), was added to the tests flasks prior to autoclaving. The flasks were then tempered to 37° C. in a water bath and inoculated at 0.1% with […]® Lot # 32310A, a commercial probiotic product (Master Supplements, Inc., Victoria, Minn.). Capsules of […]® were opened and the contents mixed aseptically to serve as the inoculum source. At an inoculation rate of 0.1%, approximately 80 million CFU was added per ml of MRS media. […]® contains (formulation strength) the following probiotic strains at the approximate CFU values listed per gram: Lactobacillus acidophilus NCFM (LA-1): 30 billion CFU Bifidobacterium lactis B1-04 (BL-34): 30 billion CFU Lactobacillus paracasei Lpc-37 (F-19): 14 billion CFU Lactobacillus rhamnosus Lr-32 (LR-44): 6 billion CFU Bifidobacterium lactis Bi-07: 8 billion CFU Turbidity, pH and titrations (made with 0.1 N NaOH and reported as % lactic acid) were made at various times up to 23 hours. The results are presented below in Table VI for the 12 and 23-hour analyses.

[6] = test system: Bifidobacterium lactic Bl-04 (BL-34); assay: Growth and lactic acid producing activity of Bifidobacterium lactis Bl-04 in MRS broth; assay type: cell-based; details: for Lactic Acid % / pH: additive at 0.1% in MRS; for NTU (Turbidity): additive at 0.1% in MRS (polysorbate 80 control 1.0 g per liter)
Excerpt: as §1, with “II” for “III”

[7] = at the concentrations studied (0.1% + 0.1%)

## CCCCCCCC/C=C\CCCCCCCC(=O)O [Oleic Acid]
[1]; 0.1% inclusion rate
  Replacement of polysorbate 80 (growth and activity), conclusion in words: somewhat effective
[2]; 0.1% inclusion rate
  Replacement of polysorbate 80 (growth and activity), conclusion in words: not as effective a replacement for polysorbate 80 as sunflower lecithin
[2]; [7]
  Synergy with sunflower lecithin: does not appear to be synergistic
[3]; 0.1% inclusion rate
  Replacement of polysorbate 80 (growth and activity), conclusion in words: not as good a replacement for polysorbate 80 as sunflower lecithin
[3]; 12 hours
  Lactic Acid %: 0.072%
  pH: 6.2
[3]; 23 hours
  pH: 4.1
[3]; [7]
  Synergy with sunflower lecithin: not synergistic
[4]; 0.1% inclusion rate
  Replacement of polysorbate 80 (growth and activity), conclusion in words: not as good a replacement
[4]; 12 hours
  Lactic Acid %: 0.073%
  pH: 4.4
[4]; 23 hours
  pH: 3.8
[5]; 0.1% inclusion rate
  Replacement of polysorbate 80 (growth and activity), conclusion in words: acceptable replacement value for polysorbate 80

## Polysorbate 80
[1]; 12 hours
  Lactic Acid %: 1.09%
  pH: 4.2
  NTU (Turbidity): 1855 NTU
[1]; 23 hours
  Lactic Acid %: 1.27%
  pH: 4.1
  NTU (Turbidity): 2038 NTU
[6]; 12 hours
  Lactic Acid %: 0.57%
  pH: 4.8
  NTU (Turbidity): 922 NTU
[6]; 23 hours
  Lactic Acid %: 0.84%
  pH: 4.5
  NTU (Turbidity): 1434 NTU
[2]; 12 hours
  Lactic Acid %: 0.99%
  pH: 4.2
  NTU (Turbidity): 1664 NTU
[2]; 23 hours
  Lactic Acid %: 1.39%
  pH: 3.9
  NTU (Turbidity): 2824 NTU
[3]; 12 hours
  Lactic Acid %: 1.12%
  pH: 4.0
  NTU (Turbidity): 2804 NTU
[3]; 23 hours
  Lactic Acid %: 1.67%
  pH: 3.7
  NTU (Turbidity): 3776 NTU
[4]; 12 hours
  Lactic Acid %: 1.42%
  pH: 3.8
  NTU (Turbidity): 3426 NTU
[4]; 23 hours
  Lactic Acid %: 1.68%
  pH: 3.7
  NTU (Turbidity): 3931 NTU
[5]; 12 hours
  Lactic Acid %: 1.42%
  pH: 3.9
  NTU (Turbidity): 3311 NTU
[5]; 23 hours
  Lactic Acid %: 1.84%
  pH: 3.7
  NTU (Turbidity): 3694 NTU
